Experimental data taken from PubChem BioAssay (NCI).
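GI50 marks 50% less growth. TGI: total growth inhibition.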

Tests used:
Test in all cases: DTP human tumour cell line panel, 384-well format
[1] = test system: OVCAR-4 ovarian
[2] = test system: RPMI-8226 leukemia
[3] = test system: NCI/ADR-RES ovarian
[4] = test system: TK-10 renal
[5] = test system: SNB-75 CNS
[6] = test system: MDA-MB-231 breast
[7] = test system: PC-3 prostate
[8] = test system: SK-MEL-5 melanoma
[9] = test system: HCT-15 colon
[10] = test system: EKVX NSCLC
[11] = test system: DU-145 prostate
[12] = test system: CCRF-CEM leukemia
[13] = test system: HOP-62 NSCLC
[14] = test system: NCI-H226 lung
[15] = test system: A498 renal
[16] = test system: NCI-H322M lung
[17] = test system: MCF7 breast
[18] = test system: ACHN renal
[19] = test system: SNB-19 CNS
[20] = test system: MDA-MB-435 melanoma
[21] = test system: IGROV1 ovarian
[22] = test system: MOLT-4 leukemia
[23] = test system: COLO 205 colon
[24] = test system: SK-OV-3 ovarian
[25] = test system: OVCAR-5 ovarian
[26] = test system: LOX IMVI melanoma
[27] = test system: NCI-H522 lung
[28] = test system: SF-268 CNS
[29] = test system: UO-31 renal
[30] = test system: MDA-MB-468 breast
[31] = test system: U251 glioblastoma
[32] = test system: HS 578T breast
[33] = test system: OVCAR-3 ovarian
[34] = test system: HT29 colon
[35] = test system: HOP-92 NSCLC
[36] = test system: SN12C renal
[37] = test system: NCI-H23 lung
[38] = test system: HCC-2998 colon
[39] = test system: A549 NSCLC
[40] = test system: CAKI-1 renal
[41] = test system: K-562 leukemia
[42] = test system: NCI-H460 NSCLC
[43] = test system: SF-539 CNS
[44] = test system: HL-60(TB) leukemia
[45] = test system: HCT-116 colon
[46] = test system: SW-620 colon
[47] = test system: 786-0 renal
[48] = test system: SF-295 CNS
[49] = test system: KM12 colon
[50] = test system: UACC-257 melanoma
[51] = test system: SK-MEL-28 melanoma
[52] = test system: OVCAR-8 ovarian
[53] = test system: M14 melanoma
[54] = test system: UACC-62 melanoma
[55] = test system: T-47D breast

In the case of `CC1(C)CC(=O)c2c(C(F)(F)F)nn(-c3ccc(C(N)=O)c(NC4CCC(OC(=O)CN)CC4)c3)c2C1` (stereo not given), the GI50 [1] is reported as 17100 nM, the TGI [1] is reported as greater than 100000 nM and the GI50 [2] is reported as 51.2 nM. It also gave a TGI [2] of 241 nM, a GI50 [3] of 2350 nM and a TGI [3] of 6770 nM. It also gave a GI50 [4] of 51 nM, a TGI [4] of 5310 nM and a GI50 [5] of 112 nM. For the same compound, the TGI [5] was 506 nM, the GI50 [6] was 22.7 nM and the TGI [6] was 71.7 nM. The GI50 [7] was 33.6 nM, the TGI [7] was 135 nM and the GI50 [8] was 39.6 nM. For the same compound, the TGI [8] was 14000 nM, the GI50 [9] was 88.8 nM and the TGI [9] was 14200 nM. The GI50 [10] was 83.1 nM, the TGI [10] was 15600 nM and the GI50 [11] was 48.2 nM. It also gave a TGI [11] of 975 nM, a GI50 [12] of 18.9 nM and a TGI [12] of 53.3 nM. The GI50 [13] was 41 nM, the TGI [13] was 20000 nM and the GI50 [14] was 30.3 nM. For the same compound, the TGI [14] was 229 nM, the GI50 [15] was 67.2 nM and the TGI [15] was 15100 nM. It also gave a GI50 [16] of 44.2 nM, a TGI [16] of 20800 nM and a GI50 [17] of 25.4 nM. For the same compound, the TGI [17] was 843 nM, the GI50 [18] was 62 nM and the TGI [18] was 18100 nM. For the same compound, the GI50 [19] was 47.5 nM, the TGI [19] was 30000 nM and the GI50 [20] was 67.4 nM. The TGI [20] was 38100 nM, the GI50 [21] was 18.9 nM and the TGI [21] was 74.3 nM. For the same compound, the GI50 [22] was 11.9 nM, the TGI [22] was 25.3 nM and the GI50 [23] was 13.7 nM. It also gave a TGI [23] of 66.7 nM, a GI50 [24] of 41.5 nM and a TGI [24] of 29500 nM. It also gave a GI50 [25] of 53.6 nM, a TGI [25] of 30200 nM and a GI50 [26] of 17.4 nM. It also gave a TGI [26] of 33.6 nM, a GI50 [27] of 21.2 nM and a TGI [27] of 49.3 nM. For the same compound, the GI50 [28] was 12.2 nM, the TGI [28] was 36.5 nM and the GI50 [29] was 119 nM. It also gave a TGI [29] of 16300 nM, a GI50 [30] of 21 nM and a TGI [30] of 47.6 nM. It also gave a GI50 [31] of 30.4 nM, a TGI [31] of 95.2 nM and a GI50 [32] of 32.1 nM. For the same compound, the TGI [32] was 222 nM, the GI50 [33] was 25.3 nM and the TGI [33] was 88.5 nM. The GI50 [34] was 24.6 nM, the TGI [34] was 11500 nM and the GI50 [35] was 28.2 nM. The TGI [35] was 89.5 nM, the GI50 [36] was 29.6 nM and the TGI [36] was 98.8 nM. For the same compound, the GI50 [37] was 21.2 nM, the TGI [37] was 68.3 nM and the GI50 [38] was 21.4 nM. The TGI [38] was 87.4 nM, the GI50 [39] was 29 nM and the TGI [39] was 11000 nM. It also gave a GI50 [40] of 67.9 nM, a TGI [40] of 19600 nM and a GI50 [41] of 27.4 nM. For the same compound, the TGI [41] was 10200 nM, the GI50 [42] was 22.1 nM and the TGI [42] was 57.3 nM. It also gave a GI50 [43] of 18.6 nM, a TGI [43] of 43.1 nM and a GI50 [44] of 19.2 nM. It also gave a TGI [44] of 35.4 nM, a GI50 [45] of 41.4 nM and a TGI [45] of 13000 nM. It also gave a GI50 [46] of 25.8 nM, a TGI [46] of 79.4 nM and a GI50 [47] of 43.9 nM. For the same compound, the TGI [47] was 11700 nM, the GI50 [48] was 37.3 nM and the TGI [48] was 140 nM. For the same compound, the GI50 [49] was 26.6 nM, the TGI [49] was 827 nM and the GI50 [50] was 52.8 nM. For the same compound, the TGI [50] was 21200 nM, the GI50 [51] was 46.5 nM and the TGI [51] was 19300 nM. For the same compound, the GI50 [52] was 21.9 nM, the TGI [52] was 48.2 nM and the GI50 [53] was 31.4 nM. The TGI [53] was 12000 nM, the GI50 [54] was 29.7 nM and the TGI [54] was 129 nM. For the same compound, the GI50 [55] was 19.5 nM and the TGI [55] was 65 nM.
